Assays:
[1] = system: intracellular M. tuberculosis H37Rv in primary human macrophages; assay type: cell-based, Mycobacterium tuberculosis; settings: positive control, 0.1 μg/ml, 0.7 μM; 6 days; not shown
BCG expressing luxAB = assay type: cell-based, Mycobacterium bovis bacillus Calmette-Guerin (BCG) Montreal; settings: 6.3-100 μM

Molecule	intracellular killing [1]	mycobacterial inhibitory capacity (BCG expressing luxAB)
NNC(=O)c1ccncc1 [Isoniazid]	same intracellular killing as 50 μM of NZX	
WKWLKKWIK-OHxTFA [WKWLKKWIKG-OHxTFA]		bacterial killing capacity was overall lower than that of WKWLKKWIKG-NH2xHOAc
